# Measurements: patent US7091040B1, “P450/acetaminophen genetically directed enzyme prodrug therapy (GDEPT)” (Innovata PLC, priority 1999, dated 2006)
# Assays:
# [1] = Viability of V79 MZ cells, alone or co-cultured with H1A2 MZ cells (bystander effect), with acetaminophen, trypan blue exclusion; format: cell-based, Chinese hamster; conditions: Chinese hamster; for viability at 4 mM: 4 mM acetaminophen 6 h, then 24 h in culture medium; for viability at 0 h, 4 mM / viability at 6 h, 4 mM: 4 mM acetaminophen in PBS
# Description: (§1) Table 1 represents the bystander effect on viability produced by incubating H1A2 MZ cells (stably transfected with human CYP1A2) with various cell-lines in the presence of acetaminophen. Tumour cells or V79 MZ cells (non transfected, parental cells) were co-cultured overnight with various mixtures of H1A2 MZ cells (as indicated in the Table), […] the cells were then washed once with PBS and maintained for either 24 or 48 h in culture medium appropriate to each cell type, as detailed in the Methods section. At 0, 6, 24 or 48 h the cells were washed in PBS and viability of the mixed cell population determined by trypan blue exclusion. The data shown are mean values±SEM of 4 separate determinations. Statistical significance was determined at each time point by comparing viability measurements in the mixed cell populations with both the viability determined at 0 h and in the absence of H1A2 MZ cells in the mixture 2×2 contingency tables using the 2-tailed Chi-squared test with Yate's correction. Viability was determined in a total of 1500 cells at each time point. Levels of significance are indicated as **p<0.001; ***p<0.0001;
# (§2) FIG. 4 represents the bystander effect on viability produced by incubating stably transfected, acetaminophen-activating H1A2 MZ cells with non-transfected parental V79 MZ cells. […] The cells were then washed in PBS and the viability of the mixed cell population determined by trypan blue exclusion. The cultures comprised V79 MZ cells only (open squares), and V79 MZ cells mixed with 5% (solid squares), 10% (open triangles), 25% (open circles) and 50% (solid circles) H1A2 MZ cells. In addition, the viability of H1A2 MZ cells in the presence (crosses) and absence (solid triangles) of acetaminophen is shown.
# V79 MZ cells = assay: as above; format: cell-based, Chinese hamster
# Description: as §1, §2
# [2] = Bystander effect on viability of MDA-MB-361 cells co-cultured with H1A2 MZ cells in the presence of acetaminophen, trypan blue exclusion; format: cell-based, human; conditions: human; for viability at 4 mM: 4 mM acetaminophen 6 h; for viability at 0 h, 4 mM / viability at 6 h, 4 mM: 4 mM acetaminophen in PBS
# Description: (§3) Tumour cells or V79 MZ cells (non transfected, parental cells) were co-cultured overnight with various mixtures of H1A2 MZ cells (as indicated in the Table), washed with PBS and incubated with 4 mM acetaminophen in PBS for 6 h at 37° C. the cells were then washed once with PBS and maintained for either 24 or 48 h in culture medium appropriate to each cell type, as detailed in the Methods section. At 0, 6, 24 or 48 h the cells were washed in PBS and viability of the mixed cell population determined by trypan blue exclusion. The data shown are mean values±SEM of 4 separate determinations. Statistical significance was determined at each time point by comparing viability measurements in the mixed cell populations with both the viability determined at 0 h and in the absence of H1A2 MZ cells in the mixture 2×2 contingency tables using the 2-tailed Chi-squared test with Yate's correction. Viability was determined in a total of 1500 cells at each time point. Levels of significance are indicated as **p<0.001; ***p<0.0001;
# (§4) For cell viability experiments 200,000 cells per well were plated on 12 well plates (Beckton-Dickenson, Oxford, UK), using the medium and conditions required by the tumour cell line and allowed to adhere overnight. After this the cells were washed with PBS before the addition of acetaminophen in 0.1 ml PBS (concentrations of 0.1–20 mM acetaminophen were dissolved in PBS by sonication) and then maintained at 37° C. At the appropriate time points, cells were removed from the plates by trypsinisation and collected by centrifugation. Cell viability was measured as ability to exclude trypan blue. Cells were counted at ×100 magnification using an Improved Neubauer haemocytometer; all cell counts are the mean of duplicate determinations of five fields from duplicate experiments.
# (§5) V79 MZ Chinese hamster cells were maintained in Dulbecco-Vogt's modified Eagle's Medium (DMEM) supplemented with 10% foetal calf serum 9FCS), 2 mM L-glutamine, penicillin (100 U/ml and streptomycin (100 μg/ml) (all tissue culture reagents were obtained from Gibco BRL, Paisley, UK). H1A2 MZ cells, which are V79 MZ cells transfected with the human CYP1A2 gene, were also maintained in supplemented DMEM with the addition of geneticin at a concentration of 4 mg/ml. SK-OV-3 cells were grown in DMEM supplemented with 15% FCS and 2 mM L-glutamine, without the addition of antibiotics. RPMI-1640 medium with 10% FCS, 2 mM L-glutamine, penicillin (100 U/ml) and streptomycin ([…]) was required by the HCT116 cells. These cell lines were maintained at 37° C. with 100% humidity and 5% CO2. […] At confluence cells were removed from tissue culture flasks by inubation with trypsin-EDTA for 5 min, diluted 1:3–1:6 in fresh medium and seeded onto fresh flasks. The tumour cell lines were obtained from the European Collection of Cell Cultures.
# MDA-MB-361 cells = assay: as above; format: cell-based, human; conditions: for viability at 4000 µM: Homo sapiens
# Description: as §3, §4, §5
# [3] = V79 MZ cells + 5% H1A2 MZ cells
# [4] = V79 MZ cells + 10% H1A2 MZ cells
# [5] = V79 MZ cells + 25% H1A2 MZ cells
# [6] = V79 MZ cells + 50% H1A2 MZ cells
# [7] = MDA-MB-361 cells + 10% H1A2 MZ cells
# [8] = MDA-MB-361 cells + 25% H1A2 MZ cells
# [9] = MDA-MB-361 cells + 50% H1A2 MZ cells
smiles,measurement,setting,value
CC(=O)Nc1ccc(O)cc1 [acetaminophen],viability at 4 mM,[1]; [3],0%
same,"viability at 0 h, 4 mM",[1]; [3],98 ± 1%
same,"viability at 6 h, 4 mM",[1]; [3],52%
same,viability at 4 mM,[1]; [4],0%
same,"viability at 0 h, 4 mM",[1]; [4],98 ± 1%
same,"viability at 6 h, 4 mM",[1]; [4],39 ± 6%
same,viability at 4 mM,[1]; [5],0%
same,"viability at 0 h, 4 mM",[1]; [5],97 ± 2%
same,"viability at 6 h, 4 mM",[1]; [5],20 ± 4%
same,viability at 4 mM,[1]; [6],0%
same,"viability at 0 h, 4 mM",[1]; [6],96 ± 3%
same,"viability at 6 h, 4 mM",[1]; [6],15 ± 7%
same,viability at 4 mM,"[1]; V79 MZ cells, 0% H1A2 MZ cells",98 ± 1%
same,"viability at 0 h, 4 mM","[1]; V79 MZ cells, 0% H1A2 MZ cells",99 ± 1%
same,"viability at 6 h, 4 mM","[1]; V79 MZ cells, 0% H1A2 MZ cells",94 ± 7%
same,Viability (%),"V79 MZ cells; V79 MZ cells + 5% H1A2 MZ cells, 4 mM acetaminophen 6 h, then 24 h in culture medium",zero
same,Viability (%),"V79 MZ cells; V79 MZ cells, 0% H1A2 MZ cells, 4 mM acetaminophen in PBS, 6 h",no decline in cell viability
same,cell viability,"V79 MZ cells; V79 MZ cells, which lack CYP1A2, acetaminophen 0.1–20 mM, 6 h",no loss of cell viability
same,viability at 4 mM,"[2]; MDA-MB-361 cells + 5% H1A2 MZ cells, then 24 h in culture medium",84 ± 7%
same,viability at 4 mM,"[2]; MDA-MB-361 cells + 5% H1A2 MZ cells, then 48 h in culture medium",92 ± 4%
same,viability at 4 mM,"[2]; MDA-MB-361 cells + 10% H1A2 MZ cells, then 24 h in culture medium",81 ± 9%
same,viability at 4 mM,"[2]; MDA-MB-361 cells + 10% H1A2 MZ cells, then 48 h in culture medium",94 ± 7%
same,"viability at 0 h, 4 mM",[2]; [7],96 ± 3%
same,"viability at 6 h, 4 mM",[2]; [7],74 ± 7%
same,viability at 4 mM,"[2]; MDA-MB-361 cells + 25% H1A2 MZ cells, then 24 h in culture medium",78 ± 9%
same,viability at 4 mM,"[2]; MDA-MB-361 cells + 25% H1A2 MZ cells, then 48 h in culture medium",91 ± 6%
same,"viability at 0 h, 4 mM",[2]; [8],97 ± 1%
same,"viability at 6 h, 4 mM",[2]; [8],70 ± 11%
same,viability at 4 mM,"[2]; MDA-MB-361 cells + 50% H1A2 MZ cells, then 48 h in culture medium",0%
same,"viability at 0 h, 4 mM",[2]; [9],98 ± 3%
same,"viability at 6 h, 4 mM",[2]; [9],42 ± 4%
same,viability at 4000 µM,"MDA-MB-361 cells; MDA-MB-361, 0 h, MDA-MB-361 cells + 5% H1A2 MZ cells, 4 mM acetaminophen in PBS, 0 h",98 ± 2%
same,viability at 4000 µM,"MDA-MB-361 cells; MDA-MB-361, 0 h, MDA-MB-361 cells, 0% H1A2 MZ cells, 4 mM acetaminophen in PBS, 0 h",96 ± 1%
same,viability at 4000 µM,"MDA-MB-361 cells; MDA-MB-361, 6 h, MDA-MB-361 cells + 5% H1A2 MZ cells, 4 mM acetaminophen in PBS, 6 h",85 ± 2%
same,viability at 4000 µM,"MDA-MB-361 cells; MDA-MB-361, 6 h, MDA-MB-361 cells, 0% H1A2 MZ cells, 4 mM acetaminophen in PBS, 6 h",98 ± 4%
same,viability at 4000 µM,"MDA-MB-361 cells; MDA-MB-361, MDA-MB-361 cells + 50% H1A2 MZ cells, 4 mM acetaminophen 6 h, then 24 h in culture medium",18%
same,viability at 4000 µM,"MDA-MB-361 cells; MDA-MB-361, MDA-MB-361 cells, 0% H1A2 MZ cells, 4 mM acetaminophen 6 h, then 24 h in culture medium",95 ± 3%
same,viability at 4000 µM,"MDA-MB-361 cells; MDA-MB-361, MDA-MB-361 cells, 0% H1A2 MZ cells, 4 mM acetaminophen 6 h, then 48 h in culture medium",97 ± 1%
same,Viability (%),"MDA-MB-361 cells; MDA-MB-361 cells + 50% H1A2 MZ cells, 4 mM acetaminophen 6 h, then 48 h in culture medium",no viable cells
same,susceptibility to cytotoxicity produced by the activation of acetaminophen,"MDA-MB-361 cells; MDA-MB-361 cells mixed with H1A2 MZ cells, 4 mM acetaminophen, 6 h",highly resistant to cytotoxicity
